From patent US5240929A, “2-heterocyclic-5-hydroxy-1,3-pyrimidines useful as antiinflammatory agents” (Warner-Lambert Company, priority 1992, dated 1993)

How the values were obtained:
cyclooxygenase = test: ARBC whole cell cyclooxygenase assay (inhibition of PGF2α formation in RBL-1 cells); assay type: cell-based, rat; details: RBL-1 whole cells; 50% inhibition of PGF2α formation; calcium ionophore A23187 (5 μM); RIA
Experimental: (§1) ARBL/ARBC WHOLE CELL 5-LIPOXYGENASE AND CYCLOOXYGENASE ASSAYS The rat basophilic leukemia cell line (RBL-1) was obtained from the American Type Culture Collection (Rockville, Md.). Radioimmunoassay (RIA) kits of LTB4 and PGF2α were obtained from Amersham (Arlington Heights, Ill.) and Seragen (Boston, Mass.), respectively. RBL-1 cells are grown in suspension culture in Eagle's minimum essential medium supplemented with 12% fetal bovine serum at 37° C. in an incubator supplied with air-5% carbon dioxide. Cells are harvested by centrifugation. They are washed with cold phosphate buffered saline pH 7.4 (PBS; NaCl, 7.1 g; NaHPO, 1.15 g; KHPO, 0.2 g; and KCl, 0.2 g/l). Cells are finally suspended in PBS containing 1.0 mM calcium at a density of […] cells/ml. Cells are incubated with and without test agent (in DMSO) (1% DMSO is without effect on arachidonic acid metabolism) for ten minutes at room temperature. Calcium ionophore A23187 (5 μM) is added and cells are incubated for seven minutes at 37° C. The reaction is stopped by chilling the tubes on ice for ten minutes. Cells are separated by centrifugation and the supernatant is stored at -20°. Aliquots (100 μL) are analyzed for LTB4 and PGF2α using radioimmunoassay kits as provided by the supplier. […]

5-lipoxygenase = target: T1, 5-lipoxygenase (Rattus norvegicus, UniProt P12527); test: ARBL whole cell 5-lipoxygenase assay (inhibition of LTB4 formation in RBL-1 cells); assay type: cell-based; details: RBL-1 whole cells; 50% inhibition of LTB4 formation; calcium ionophore A23187 (5 μM); RIA
T1 construct: host or cells: RBL-1 (rat basophilic leukemia)
T1 sequence (P12527 1-673): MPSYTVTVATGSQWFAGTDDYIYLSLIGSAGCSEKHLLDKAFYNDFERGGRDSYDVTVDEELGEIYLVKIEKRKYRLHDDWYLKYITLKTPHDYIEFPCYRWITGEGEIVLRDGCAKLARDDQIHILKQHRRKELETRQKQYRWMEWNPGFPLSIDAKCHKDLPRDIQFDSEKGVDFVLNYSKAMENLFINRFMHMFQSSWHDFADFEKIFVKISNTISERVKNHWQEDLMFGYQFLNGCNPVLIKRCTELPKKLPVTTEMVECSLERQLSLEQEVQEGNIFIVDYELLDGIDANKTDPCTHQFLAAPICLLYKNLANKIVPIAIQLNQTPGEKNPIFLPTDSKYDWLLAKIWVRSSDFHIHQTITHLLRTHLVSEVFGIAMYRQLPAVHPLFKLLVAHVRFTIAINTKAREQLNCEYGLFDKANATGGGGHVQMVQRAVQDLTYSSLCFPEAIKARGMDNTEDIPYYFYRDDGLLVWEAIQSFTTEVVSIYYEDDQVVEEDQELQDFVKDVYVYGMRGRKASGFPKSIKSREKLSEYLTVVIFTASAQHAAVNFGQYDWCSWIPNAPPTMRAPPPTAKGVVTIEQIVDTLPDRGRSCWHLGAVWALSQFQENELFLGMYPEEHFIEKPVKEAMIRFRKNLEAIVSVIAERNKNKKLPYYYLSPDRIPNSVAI
Experimental: as §1

CON(C)C(=O)c1nc(C(C)(C)C)c(O)c(C(C)(C)C)n1 [Example 1, 4,6-Bis(1,1-dimethylethyl)-5-hydroxy-N-methoxy-N-methyl-2-pyrimidinecarboxamide]
IC50 (cyclooxygenase): 1350 nM | IC50 (5-lipoxygenase): 1180 nM
